In US4656166A, “Antibiotic compounds derived from cephalosporins, process for their production and pharmaceutical compositions” (Sanofi, priority 1983, dated 1987):
Converted amounts (≈) assume the structure as drawn.

What was measured:
Type in all cases: cell-based
Citrobacter RL 49 = experiment: MIC, in vitro dilution method, Citrobacter RL 49 (Table III); conditions: RL49; Citrobacter RL 49; dilution method; read-out: MIC
Description: (§1) The products of the invention have been studied as regards their pharmacological properties and, more especially, bacteriostatic action. This has been determined in vitro by the dilution method, and the study was on Gram negative strains.
(§2) Results, expressed in minimum inhibiting concentrations (MIC-- μg/ml), are collected in the following table (Table III).

Enterobacter RO 154 = experiment: MIC, in vitro dilution method, Enterobacter RO 154 (Table III); conditions: RO154; Enterobacter RO 154; dilution method; read-out: MIC
Description: as §1, §2

Serratia RL 72 = experiment: MIC, in vitro dilution method, Serratia RL 72 (Table III); conditions: RL72
Description: as §1, §2

Pseudomonas RL 112 = experiment: MIC, in vitro dilution method, Pseudomonas RL 112 (Table III); conditions: RL112
Description: as §1, §2

[1] = system: Proteus vulgaris RL 99 bis; experiment: MIC, in vitro dilution method, Proteus vulgaris RL 99 bis (Table III); conditions: RL99BIS; Proteus vulgaris RL 99 bis; dilution method; read-out: MIC
Description: as §1, §2

Escherichia coli SOL 90 = experiment: MIC, in vitro dilution method, Escherichia coli SOL 90 (Table III); conditions: SOL90; Escherichia coli SOL 90; dilution method; read-out: MIC
Description: as §1, §2

Klebsiella RO 30 = experiment: MIC, in vitro dilution method, Klebsiella RO 30 (Table III); conditions: RO30; Klebsiella RO 30; dilution method; read-out: MIC
Description: as §1, §2

Structure (SMILES)	MIC (Citrobacter RL 49)	MIC (Enterobacter RO 154)	MIC (Serratia RL 72)	MIC (Pseudomonas RL 112)	MIC [1]	MIC (Escherichia coli SOL 90)	MIC (Klebsiella RO 30)
CC(O/N=C(\C(=O)NC1C(=O)N2C(C(=O)O)=C(COC(=O)c3ccc(CN)cc3)C[S+]([O-])C12)c1csc(N)n1)C(=O)O (centres unmarked) [42 216]	≤ 0.12 µg/mL	≤ 0.12 µg/mL	0.5 µg/mL (≈ 0.806 µM)	8 µg/mL (≈ 12.9 µM)	≤ 0.12 µg/mL	≤ 0.12 µg/mL	≤ 0.12 µg/mL
Nc1nc(/C(=N/OC2(C(=O)O)CCC2)C(=O)NC2C(=O)N3C(C(=O)O)=C(COC(=O)CC4CCCNC4)C[S+]([O-])C23)cs1 (centres unmarked) [42 472]	≤ 0.125 µg/mL	≤ 0.125 µg/mL	0.25 µg/mL (≈ 0.391 µM)	4 µg/mL (≈ 6.26 µM)	≤ 0.125 µg/mL	0.25 µg/mL (≈ 0.391 µM)	≤ 0.125 µg/mL
CC(C)(O/N=C(\C(=O)NC1C(=O)N2C(C(=O)O)=C(COC(=O)[C@@H](N)Cc3c[nH]cn3)C[S+]([O-])C12)c1csc(N)n1)C(=O)O (some centres unmarked) [41 889]	1 µg/mL (≈ 1.57 µM)	8 µg/mL (≈ 12.5 µM)	4 µg/mL (≈ 6.26 µM)	8 µg/mL (≈ 12.5 µM)	0.5 µg/mL (≈ 0.783 µM)	1 µg/mL (≈ 1.57 µM)	1 µg/mL (≈ 1.57 µM)
Cc1cc(C(=O)OCC2=C(C(=O)O)N3C(=O)C(NC(=O)/C(=N\OC4(C(=O)O)CCC4)c4csc(N)n4)C3[S+]([O-])C2)ccc1CN (centres unmarked) [42 463]	≤ 0.125 µg/mL	≤ 0.125 µg/mL	0.5 µg/mL (≈ 0.757 µM)	4 µg/mL (≈ 6.05 µM)	≤ 0.125 µg/mL	≤ 0.125 µg/mL	≤ 0.125 µg/mL
CNCc1cccc(C(=O)OCC2=C(C(=O)O)N3C(=O)C(NC(=O)/C(=N\OC(C)(C)C(=O)O)c4csc(N)n4)C3[S+]([O-])C2)c1 (centres unmarked) [42 537]	0.25 µg/mL (≈ 0.385 µM)	0.25 µg/mL (≈ 0.385 µM)	0.5 µg/mL (≈ 0.771 µM)	8 µg/mL (≈ 12.3 µM)	≤ 0.125 µg/mL	0.25 µg/mL (≈ 0.385 µM)	0.25 µg/mL (≈ 0.385 µM)
CC(C)(O/N=C(\C(=O)NC1C(=O)N2C(C(=O)O)=C(COC(=O)CC3CCCNC3)C[S+]([O-])C12)c1csc(N)n1)C(=O)O (centres unmarked) [42 372]	≤ 0.125 µg/mL	≤ 0.125 µg/mL	0.25 µg/mL (≈ 0.399 µM)	4 µg/mL (≈ 6.38 µM)	≤ 0.125 µg/mL	0.25 µg/mL (≈ 0.399 µM)	0.25 µg/mL (≈ 0.399 µM)
CC(O/N=C(\C(=O)NC1C(=O)N2C(C(=O)O)=C(COC(=O)[C@H]3CC[C@H](CN)CC3)C[S+]([O-])C12)c1csc(N)n1)C(=O)O (some centres unmarked) [42 217]	≤ 0.12 µg/mL	≤ 0.12 µg/mL	0.25 µg/mL (≈ 0.399 µM)	16 µg/mL (≈ 25.5 µM)	≤ 0.12 µg/mL	≤ 0.12 µg/mL	≤ 0.12 µg/mL
CC(C)(CN)C(=O)OCC1=C(C(=O)O)N2C(=O)C(NC(=O)/C(=N\OC3(C(=O)O)CCC3)c3csc(N)n3)C2[S+]([O-])C1 (centres unmarked) [42 208]	0.5 µg/mL (≈ 0.816 µM)	0.25 µg/mL (≈ 0.408 µM)	1 µg/mL (≈ 1.63 µM)	4 µg/mL (≈ 6.53 µM)	≤ 0.12 µg/mL	0.5 µg/mL (≈ 0.816 µM)	0.5 µg/mL (≈ 0.816 µM)
CCNCc1cccc(C(=O)OCC2=C(C(=O)O)N3C(=O)C(NC(=O)/C(=N\OC(C)(C)C(=O)O)c4csc(N)n4)C3[S+]([O-])C2)c1 (centres unmarked) [42 538]	0.25 µg/mL (≈ 0.377 µM)	0.25 µg/mL (≈ 0.377 µM)	0.5 µg/mL (≈ 0.754 µM)	8 µg/mL (≈ 12.1 µM)	≤ 0.125 µg/mL	0.5 µg/mL (≈ 0.754 µM)	0.25 µg/mL (≈ 0.377 µM)
Cc1ccc(CN)c(C)c1C(=O)OCC1=C(C(=O)O)N2C(=O)C(NC(=O)C(=NOC3(C(=O)O)CCC3)c3csc(N)n3)C2[S+]([O-])C1 (centres unmarked) [42 541]	0.25 µg/mL (≈ 0.371 µM)	0.25 µg/mL (≈ 0.371 µM)	0.5 µg/mL (≈ 0.741 µM)	4 µg/mL (≈ 5.93 µM)	≤ 0.125 µg/mL	0.5 µg/mL (≈ 0.741 µM)	≤ 0.125 µg/mL
Cc1c(CN)cccc1C(=O)OCC1=C(C(=O)O)N2C(=O)C(NC(=O)C(=NOC3(C(=O)O)CCC3)c3csc(N)n3)C2[S+]([O-])C1 (centres unmarked) [42 540]	0.125 µg/mL (≈ 0.189 µM)	≤ 0.125 µg/mL	0.25 µg/mL (≈ 0.378 µM)	4 µg/mL (≈ 6.05 µM)	≤ 0.125 µg/mL	0.25 µg/mL (≈ 0.378 µM)	≤ 0.125 µg/mL
CC(C)(ON=C(C(=O)NC1C(=O)N2C(C(=O)O)=C(COC(=O)C3CCCCC3CN)C[S+]([O-])C12)c1csc(N)n1)C(=O)O (centres unmarked) [42 321]	0.5 µg/mL (≈ 0.78 µM)	0.25 µg/mL (≈ 0.39 µM)	1 µg/mL (≈ 1.56 µM)	8 µg/mL (≈ 12.5 µM)	≤ 0.125 µg/mL	0.5 µg/mL (≈ 0.78 µM)	0.5 µg/mL (≈ 0.78 µM)
Cc1cc(C(=O)OCC2=C(C(=O)O)N3C(=O)C(NC(=O)/C(=N\OC(C)(C)C(=O)O)c4csc(N)n4)C3[S+]([O-])C2)ccc1CN (centres unmarked) [42 380]	≤ 0.125 µg/mL	≤ 0.125 µg/mL	1 µg/mL (≈ 1.54 µM)	4 µg/mL (≈ 6.17 µM)	≤ 0.125 µg/mL	≤ 0.125 µg/mL	≤ 0.125 µg/mL
CC(C)(O/N=C(\C(=O)NC1C(=O)N2C(C(=O)O)=C(COC(=O)CCCCCCCN)C[S+]([O-])C12)c1csc(N)n1)C(=O)O (centres unmarked) [41 856]	2 µg/mL (≈ 3.11 µM)	4 µg/mL (≈ 6.22 µM)	2 µg/mL (≈ 3.11 µM)	16 µg/mL (≈ 24.9 µM)	≤ 0.12 µg/mL	0.5 µg/mL (≈ 0.778 µM)	0.25 µg/mL (≈ 0.389 µM)
CC(C)(O/N=C(\C(=O)NC1C(=O)N2C(C(=O)O)=C(COC(=O)C3(N)CCCCC3)C[S+]([O-])C12)c1csc(N)n1)C(=O)O (centres unmarked) [41 976]	0.5 µg/mL (≈ 0.798 µM)	8 µg/mL (≈ 12.8 µM)	8 µg/mL (≈ 12.8 µM)	8 µg/mL (≈ 12.8 µM)	0.25 µg/mL (≈ 0.399 µM)	1 µg/mL (≈ 1.6 µM)	0.5 µg/mL (≈ 0.798 µM)
CC(C)C[C@H](N)C(=O)OCC1=C(C(=O)O)N2C(=O)C(NC(=O)/C(=N\OC(C)(C)C(=O)O)c3csc(N)n3)C2[S+]([O-])C1 (some centres unmarked) [41 859]	2 µg/mL (≈ 3.25 µM)	8 µg/mL (≈ 13 µM)	4 µg/mL (≈ 6.51 µM)	16 µg/mL (≈ 26 µM)	0.25 µg/mL (≈ 0.407 µM)	1 µg/mL (≈ 1.63 µM)	0.5 µg/mL (≈ 0.813 µM)
COc1cc(C(=O)OCC2=C(C(=O)O)N3C(=O)C(NC(=O)/C(=N\OC(C)(C)C(=O)O)c4csc(N)n4)C3[S+]([O-])C2)ccc1CN (centres unmarked) [42 461]	≤ 0.125 µg/mL	≤ 0.125 µg/mL	2 µg/mL (≈ 3.01 µM)	8 µg/mL (≈ 12 µM)	≤ 0.125 µg/mL	0.25 µg/mL (≈ 0.376 µM)	≤ 0.125 µg/mL
CC(O/N=C(\C(=O)NC1C(=O)N2C(C(=O)O)=C(COC(=O)C3CCNCC3)C[S+]([O-])C12)c1csc(N)n1)C(=O)O (centres unmarked) [42 215]	≤ 0.12 µg/mL	≤ 0.12 µg/mL	0.25 µg/mL (≈ 0.418 µM)	8 µg/mL (≈ 13.4 µM)	≤ 0.12 µg/mL	≤ 0.12 µg/mL	≤ 0.12 µg/mL
CC(ON=C(C(=O)NC1C(=O)N2C(C(=O)O)=C(CSC(=O)c3ccc(CN)cc3)C[S+]([O-])C12)c1csc(N)n1)C(=O)O (centres unmarked) [compound 42221]	≤ 0.12 µg/mL	0.25 µg/mL (≈ 0.393 µM)	2 µg/mL (≈ 3.14 µM)	64 µg/mL (≈ 101 µM)	≤ 0.12 µg/mL	0.25 µg/mL (≈ 0.393 µM)	≤ 0.12 µg/mL
CC(C)(N)C(=O)OCC1=C(C(=O)O)N2C(=O)C(NC(=O)/C(=N\OC(C)(C)C(=O)O)c3csc(N)n3)C2[S+]([O-])C1 (centres unmarked) [41 858]	1 µg/mL (≈ 1.7 µM)	8 µg/mL (≈ 13.6 µM)	4 µg/mL (≈ 6.82 µM)	8 µg/mL (≈ 13.6 µM)	0.5 µg/mL (≈ 0.852 µM)	2 µg/mL (≈ 3.41 µM)	0.5 µg/mL (≈ 0.852 µM)
CC(O/N=C(\C(=O)NC1C(=O)N2C(C(=O)O)=C(COC(=O)CCCCN)C[S+]([O-])C12)c1csc(N)n1)C(=O)O (centres unmarked) [42 214]	≤ 0.12 µg/mL	≤ 0.12 µg/mL	0.5 µg/mL (≈ 0.852 µM)	16 µg/mL (≈ 27.3 µM)	≤ 0.12 µg/mL	≤ 0.12 µg/mL	≤ 0.12 µg/mL
CC(N)C(=O)Nc1ccc(C(=O)OCC2=C(C(=O)O)N3C(=O)C(NC(=O)C(=NOC4(C(=O)O)CCC4)c4csc(N)n4)C3[S+]([O-])C2)cc1 (centres unmarked) [42 818]		4 µg/mL (≈ 5.68 µM)		4 µg/mL (≈ 5.68 µM)		0.125 µg/mL (≈ 0.178 µM)	0.125 µg/mL (≈ 0.178 µM)
Cc1c(NC(=O)CN)cccc1C(=O)OCC1=C(C(=O)O)N2C(=O)C(NC(=O)C(=NOC(C)(C)C(=O)O)c3csc(N)n3)C2[S+]([O-])C1 (centres unmarked) [42 585]		8 µg/mL (≈ 11.6 µM)		4 µg/mL (≈ 5.78 µM)		0.25 µg/mL (≈ 0.361 µM)	0.25 µg/mL (≈ 0.361 µM)
